# According to article PMC6375994, “Macrophage Migration Inhibitory Factor Acts as the Potential Target of a Newly Synthesized Compound, 1-(9′-methyl-3′-carbazole)-3, 4-dihydro-β-carboline” (Scientific Reports, 2019):
# Biological target: T1, recombinant human MIF protein (Homo sapiens, UniProt P14174)
# T1 construct: commercial recombinant human MIF (PeproTech), amine-coupled to CM7 chip; homotrimer
# T1 sequence (P14174 2-115): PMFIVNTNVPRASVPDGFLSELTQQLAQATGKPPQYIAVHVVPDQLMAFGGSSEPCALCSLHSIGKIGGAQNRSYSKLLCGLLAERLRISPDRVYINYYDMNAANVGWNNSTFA
# Experiment: surface plasmon resonance (Biacore T200)
# Type: binding
smiles,measurement,value
"Cn1c2ccccc2c2cc(C3=NCCc4c3[nH]c3ccccc43)ccc21 [compound 7, 1-(9′-methyl-3′-carbazole)-3,4-dihydro-β-carboline]",Kd,725 nM
